Literature values in PMC8513935.

How the values were obtained:
[1] = experimental, compiled by the authors from the literature (the ESI cites the sources); settings: 25 C
[2] = derived by the authors as gas->solvent minus gas->water (a hypothetical dry solvent; the ESI), not a two-phase measurement; settings: 25 C
[3] = log P octanol/water from commercial databases, averaged (the ESI); settings: Octanol (wet), 25 C

log K of transfer, gas to solvent ([1]; Hexadecane) | log K of transfer, gas to solvent ([1]; Methanol) | log K of transfer, gas to solvent ([1]; Octan-1-ol) | log K of transfer, gas to solvent ([1]; Propan-2-ol) | log K of transfer, gas to solvent ([1]; Propanone) | log K of transfer, gas to solvent ([1]; Tetrahydrofuran) | log K of transfer, gas to solvent ([1]; Water) | log K of transfer, water to solvent ([2]; Acetone) | log K of transfer, water to solvent ([2]; Hexadecane) | log K of transfer, water to solvent ([2]; Methanol) | log K of transfer, water to solvent ([2]; Octan-1-ol(dry)) | log K of transfer, water to solvent ([2]; Propan-2-ol) | log K of transfer, water to solvent ([2]; Tetrahydrofuran) | log K of transfer, water to solvent [3] | log K of transfer, gas to solvent ([1]; Benzene) | log K of transfer, gas to solvent ([1]; Toluene) | log K of transfer, water to solvent ([2]; Benzene) | log K of transfer, water to solvent ([2]; Toluene) | SMILES
4.08 log10 K | 3.8 log10 K | 3.98 log10 K | 3.79 log10 K | 4.32 log10 K | 4.77 log10 K | 0.22 log10 K | 4.1 log10 K | 3.86 log10 K | 3.58 log10 K | 3.76 log10 K | 3.57 log10 K | 4.55 log10 K | 3.66 log10 K | – | – | – | – | CC(C)c1ccccc1
3.35 log10 K | – | – | – | – | – | 2.68 log10 K | – | 0.671 log10 K | – | – | – | – | 1.67 log10 K | 3.73 log10 K | 3.84 log10 K | 1.05 log10 K | 1.16 log10 K | CCCNCCC
3.54 log10 K | – | – | – | – | – | 0.89 log10 K | – | 2.65 log10 K | – | – | – | – | 2.52 log10 K | – | – | – | – | CC(C)SC(C)C
